Assay [1] concerns the target T1, human serotonin transporter (hSERT) (Homo sapiens, UniProt P31645).
T1 construct: expressed in transfected cells
Kind of assay: Human transporter binding studies: radioligand binding to cloned hSERT ([3H]imipramine). To be noted: for Kd: HEK-293 cell membranes, 1.0 nM [3H]imipramine, 22° C., 60 minutes, geometric mean of at least three experiments; for specificity for hSERT relative to hNET and hDAT (in words): comparison of Kd values between transporters; for specificity for hSERT compared to venlafaxine (in words): comparison of Kd values with venlafaxine. Here is the method:
(§1) The cells were incubated in 10% CO2, 90% air at 37° C. and 100% humidity. The hNET cell cultures contained 250 μg/mL geneticin sulfate. The cells were grown to 70–80% confluency prior to harvesting.
(§2) Cell membranes containing hSERT, hNET, or hDAT were prepared from the cell lines to assay ligand binding for each of the transporters. […] The washed cells were incubated for 5 minutes at 38° C. in 10 mL solution 1 containing 100 mM ethylene glycol-bis N,N,N′,N′-tetraacetic acid (EGTA). The cells were then scraped from the flask surface with a rubber spatula, placed into a centrifuge tube, and collected by centrifugation at 1000×g for 5 minutes at 4° C. The resulting supernatant was discarded, and the cell pellet was resuspended in 0.5 to 1.0 mL of the appropriate binding buffer (described below). The resuspended cell pellet was homogenized using a Polytron for 10 seconds at setting 6. The resulting homogenate was centrifuged at about 36,000×g for 10 minutes at 4° C. The supernatant was discarded, and the pellet was resuspended in the same volume of the appropriate binding buffer and centrifuged again. The supernatant was discarded, and the final pellet containing cell membranes was resuspended in the appropriate binding buffer and stored at −80° C. until use.
(§3) Radioligand binding assays for the indicated transporters were performed as follows. To assess binding to the cloned hSERT, cells expressing hSERT were homogenized in 50 mM Tris-HCl with 120 mM NaCl and 5 mM KCl (pH 7.4). […] The reactions were incubated at 22° C. for 60 minutes. Following incubation, the reactions were terminated by rapid filtration through separate GF/B filter strips pretreated with 0.2% polyethylenimine in a 48-well Brandel cell harvester. The cell membrane-containing filter strips were then rinsed five times with ice-cold 0.9% NaCl. After rinsing, individual filters were cut from the strip and placed in a scintillation vial containing 6.5 mL of Redi-Safe (Beckman Instruments, Fullerton, Calif.). Radioactivity was measured with a Beckman liquid scintillation counter (LS 5000TD).
(§4) The program was modified to calculate the Hill coefficient (nH). Data are presented as geometric mean ±S.E.M. of at least three independent experiments. One-component models and two-component models were compared using the root mean square error of each fit and the F test.

For assay [2], the target named is T2, human norepinephrine transporter (hNET) (Homo sapiens, UniProt P23975).
T2 construct: expressed in transfected cells
T2 sequence (P23975 whole entry): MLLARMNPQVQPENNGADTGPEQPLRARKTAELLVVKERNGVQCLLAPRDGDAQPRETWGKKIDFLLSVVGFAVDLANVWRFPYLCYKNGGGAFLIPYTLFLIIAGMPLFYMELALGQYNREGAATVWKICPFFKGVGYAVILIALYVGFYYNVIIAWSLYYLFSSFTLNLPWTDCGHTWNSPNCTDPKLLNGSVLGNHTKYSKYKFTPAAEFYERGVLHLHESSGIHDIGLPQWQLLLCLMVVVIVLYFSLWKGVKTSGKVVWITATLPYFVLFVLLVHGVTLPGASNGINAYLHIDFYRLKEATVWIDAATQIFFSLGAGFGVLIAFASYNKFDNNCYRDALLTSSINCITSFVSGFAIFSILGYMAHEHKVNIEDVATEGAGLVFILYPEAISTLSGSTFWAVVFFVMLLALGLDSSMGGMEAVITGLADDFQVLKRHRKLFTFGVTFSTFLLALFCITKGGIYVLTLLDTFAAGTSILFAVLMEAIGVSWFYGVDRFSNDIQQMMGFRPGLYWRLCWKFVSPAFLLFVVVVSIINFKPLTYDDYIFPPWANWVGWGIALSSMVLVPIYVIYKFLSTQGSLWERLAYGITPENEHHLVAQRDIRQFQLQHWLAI
The experiment in a line: Human transporter binding studies: radioligand binding to cloned hNET ([3H]nisoxetine). To be noted: for Kd: HEK-293 cell membranes, 0.5 nM [3H]nisoxetine, 22° C., 60 minutes, geometric mean of at least three experiments; for specificity for hNET compared to venlafaxine (in words): comparison of Kd values with venlafaxine. Here is the method:
as §1, §2
To assess binding to the cloned hNET, cells expressing hNET were homogenized in 50 mM Tris-HCl with 300 mM NaCl and 5 mM KCl (pH 7.4). […] A reaction to determine non-specific binding consisted of 25 μg cell membrane protein, 0.5 nM [^3H]nisoxetine, and 1 μM final concentration of unlabeled nisoxetine. The reactions were incubated at 22° C. for 60 minutes. Following incubation, the reactions were terminated by rapid filtration through separate GF/B filter strips pretreated with 0.2% polyethylenimine in a 48-well Brandel cell harvester. The cell membrane-containing filter strips were then rinsed five times with ice-cold 0.9% NaCl. After rinsing, individual filters were cut from the strip and placed in a scintillation vial containing 6.5 mL of Redi-Safe (Beckman Instruments, Fullerton, Calif.). Radioactivity was measured with a Beckman liquid scintillation counter (LS 5000TD).
as §4

Assay [3] concerns the target T3, human dopamine transporter (hDAT) (Homo sapiens, UniProt Q01959).
T3 construct: expressed in transfected cells
Kind of assay: Human transporter binding studies: radioligand binding to cloned hDAT ([3H]WIN35428). To be noted: for Kd: HEK-293 cell membranes, 1 nM [3H]WIN35428, 22° C., 1 hour, geometric mean of at least three experiments; for specificity for hDAT compared to venlafaxine (in words): comparison of Kd values with venlafaxine. Here is the method: as §1, §2
as §3, with “To” for “Radioligand binding assays for the indicated transporters were performed as follows. To”, “hDAT,” for “hSERT,”, “hDAT” for “hSERT”, “NaCl” for “NaCl and 5 mM KCl”, “1 hour.” for “60 minutes.”
as §4

T3 sequence (Q01959 whole entry): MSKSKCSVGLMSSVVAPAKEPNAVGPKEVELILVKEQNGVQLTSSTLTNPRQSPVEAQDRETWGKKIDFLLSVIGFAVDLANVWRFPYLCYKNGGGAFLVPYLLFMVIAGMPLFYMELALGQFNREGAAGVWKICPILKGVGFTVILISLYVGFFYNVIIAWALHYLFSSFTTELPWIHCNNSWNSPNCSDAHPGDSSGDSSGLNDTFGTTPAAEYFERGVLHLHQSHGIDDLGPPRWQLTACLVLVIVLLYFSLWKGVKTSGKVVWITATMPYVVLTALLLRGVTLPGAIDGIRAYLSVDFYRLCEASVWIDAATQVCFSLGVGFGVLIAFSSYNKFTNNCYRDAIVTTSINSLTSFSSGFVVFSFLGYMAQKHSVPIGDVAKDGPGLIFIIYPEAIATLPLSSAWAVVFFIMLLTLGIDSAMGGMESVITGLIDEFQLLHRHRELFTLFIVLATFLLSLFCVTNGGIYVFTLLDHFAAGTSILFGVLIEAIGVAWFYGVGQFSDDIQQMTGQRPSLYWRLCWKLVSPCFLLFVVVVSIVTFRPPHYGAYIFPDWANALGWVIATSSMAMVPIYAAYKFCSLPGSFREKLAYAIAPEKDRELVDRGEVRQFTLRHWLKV
T1 sequence (P31645 whole entry): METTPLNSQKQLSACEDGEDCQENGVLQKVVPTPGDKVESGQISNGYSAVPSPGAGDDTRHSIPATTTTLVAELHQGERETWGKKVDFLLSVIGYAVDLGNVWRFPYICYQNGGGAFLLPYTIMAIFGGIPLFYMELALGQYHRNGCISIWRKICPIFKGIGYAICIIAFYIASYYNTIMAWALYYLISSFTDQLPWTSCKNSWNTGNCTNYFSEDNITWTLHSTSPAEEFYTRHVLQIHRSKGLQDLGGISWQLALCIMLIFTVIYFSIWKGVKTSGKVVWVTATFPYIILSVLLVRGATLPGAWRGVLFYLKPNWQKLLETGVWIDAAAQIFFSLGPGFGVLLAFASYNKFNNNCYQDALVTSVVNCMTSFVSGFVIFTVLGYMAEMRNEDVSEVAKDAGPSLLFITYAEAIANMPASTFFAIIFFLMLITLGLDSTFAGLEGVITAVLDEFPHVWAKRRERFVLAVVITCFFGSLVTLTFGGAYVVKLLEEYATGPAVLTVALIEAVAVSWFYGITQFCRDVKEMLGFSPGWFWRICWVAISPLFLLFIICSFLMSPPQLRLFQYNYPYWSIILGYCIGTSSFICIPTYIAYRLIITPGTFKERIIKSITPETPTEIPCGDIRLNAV

As for `CC(C)C(O)C(CN)c1ccc2ccccc2c1` (single isomer, unassigned) [Compound C2], in assay [1], the dissociation constant Kd amounted to 0.0151 µM; the “specificity for hSERT relative to hNET and hDAT (in words)” value is on record as “greater specificity for hSERT than for hNET of hDAT”. The molecule also returned a Kd in assay [2] of 0.14 µM. In addition, in assay [3], binding was put at a Kd of 1.6 µM and the “specificity for hDAT compared to venlafaxine (in words)” value is “greater specificity for all three transporters compared to venlafaxine”.

Take `CC(C)C(O)C(CN)c1ccc2ccccc2c1` (single isomer, unassigned) [Compound C1]: in assay [1], the affinity, expressed as Kd, was 0.007 µM; the “specificity for hSERT relative to hNET and hDAT (in words)” value is recorded as “greater specificity for hSERT than for hNET of hDAT”; the “specificity for hSERT compared to venlafaxine (in words)” value is “greater specificity for all three transporters compared to venlafaxine”. Further, in assay [2], the Kd is 0.15 µM and the “specificity for hNET compared to venlafaxine (in words)” value was “greater specificity for all three transporters compared to venlafaxine”. In assay [3], the dissociation constant Kd worked out at 1.28 µM and the “specificity for hDAT compared to venlafaxine (in words)” value is “greater specificity for all three transporters compared to venlafaxine”.

Consider `NCC(c1ccc2ccccc2c1)C(O)c1ccccc1` (racemic) [E, racemic mixture of (2S, 3R)- and (2R, 3S)-3-hydroxy-2-(2′naphthyl)-3-phenylpropylamine], for which, in assay [3], the Kd worked out at 0.42 µM and the “specificity for hDAT compared to venlafaxine (in words)” value is on record as “greater specificity for hDAT compared to vanlafaxine”.

Regarding `CC(C)C(O)C(CN(C)C)c1ccc2ccccc2c1` (racemic) [Compound D, racemic mixture of (2R, 3S)- and (2S, 3R)-N,N-dimethyl-3-hydroxy-4-methyl-2-(2′naphthyl)pentylamine], in assay [1], binding was put at a Kd of 0.0003 µM; the “specificity for hSERT relative to hNET and hDAT (in words)” value is reported as “stronger binding to hSERT than to hNET or hDAT”; the “specificity for hSERT compared to venlafaxine (in words)” value is “more potent inhibitor of all three transporters compared to vanlafaxine”. Besides, in assay [2], the dissociation constant (Kd) turned out to be 0.0146 µM and the “specificity for hNET compared to venlafaxine (in words)” value was “more potent inhibitor of all three transporters compared to vanlafaxine”. Further, in assay [3], the Kd stood at 0.18 µM and the “specificity for hDAT compared to venlafaxine (in words)” value is “more potent inhibitor of all three transporters compared to vanlafaxine”.

In the case of `CNCC(c1ccc2ccccc2c1)C(O)c1ccccc1` (racemic) [Compound B, racemic mixture of (2S, 3R)- and (2R, 3S)-N-methyl-3-hydroxy-2-(2′-naphthyl)-3-phenylpropylamine], in assay [3], the Kd came out at 0.39 µM and the “specificity for hDAT compared to venlafaxine (in words)” value is “greater specificity for hDAT than the parent analogue venlfaxine”.

As for `CN(C)C[C@H](c1ccc2ccccc2c1)[C@@H](O)c1ccccc1` (racemic) [F, racemic mixture of (2S, 3R)- and (2R, 3S)-N,N-dimethyl-3-hydroxy-2-(2′-naphthyl)-3-phenylpropylamine], in assay [3], the “specificity for hDAT compared to venlafaxine (in words)” value is “greater specificity for hDAT compared to vanlafaxine”.

In assay [1], `CNCC(c1ccc2ccccc2c1)C(O)c1ccccc1` (racemic) [Compound A, racemic mixture of (2R, 3R)- and (2S, 3S)-N-methyl-3-hydroxy-2-(2′-naphthyl)-3-phenylpropylamine] came in with a dissociation constant Kd of 0.0063 µM. In addition, in assay [2], the “binding to hNET ranked among all compounds tested (in words)” value is “strongest binding to hNET of all the compounds tested”; the “specificity for hNET relative to hSERT and hDAT (in words)” value was “greater specificity for hNET than for hSERT or hDAT”; binding was characterised by a dissociation constant (Kd) of 0.00025 µM. This molecule also came in with a Kd in assay [3] of 0.13 µM.

Take `CC(C)[C@H](O)[C@@H](CN(C)C)c1ccc2ccccc2c1` [Compound D1, (2R, 3S)-N,N-dimethyl-3-hydroxy-4-methyl-2-(2′-naphthyl)pentylamine]: in assay [1], the Kd came to 0.0042 µM and the “specificity for hSERT compared to venlafaxine (in words)” value is “greater specificity for all three transporters compared to venlafaxine”. In assay [2], the dissociation constant (Kd) was 0.0074 µM and the “specificity for hNET compared to venlafaxine (in words)” value is “greater specificity for all three transporters compared to venlafaxine”. In addition, in assay [3], binding was put at a Kd of 0.15 µM and the “specificity for hDAT compared to venlafaxine (in words)” value is “greater specificity for all three transporters compared to venlafaxine”.

Take `CC(C)[C@@H](O)[C@H](CN(C)C)c1ccc2ccccc2c1` [Compound D2, (2S, 3R)-N,N-dimethyl-3-hydroxy-4-methyl-2-(2′-naphthyl)pentylamine]: in assay [1], the Kd was 0.0026 µM; the “specificity for hSERT relative to hNET and hDAT (in words)” value was “greater specificity for hSERT than for hNET or hDAT”; the “specificity for hSERT compared to venlafaxine (in words)” value is listed as “greater specificity for all three transporters compared to venlafaxine”. For the same molecule, in assay [2], the Kd stood at 0.06 µM and the “specificity for hNET compared to venlafaxine (in words)” value was “greater specificity for all three transporters compared to venlafaxine”. Further, in assay [3], the dissociation constant Kd was found to be 0.8 µM and the “specificity for hDAT compared to venlafaxine (in words)” value is given as “greater specificity for all three transporters compared to venlafaxine”.

`CC(C)C(O)C(CN)c1ccc2ccccc2c1` (racemic) [Compound C, racemic mixture of (2R, 3S)- and (2S, 3R)-3-hydroxy-4-methyl-2-(2′-naphthyl)pentylamine]: in assay [1], binding was characterised by a dissociation constant (Kd) of 0.0057 µM; the “specificity for hSERT relative to hNET and hDAT (in words)” value is reported as “more potent inhibitor of hSERT than of hNET or hDAT”; the “specificity for hSERT compared to venlafaxine (in words)” value is given as “greater specificity for all three transporters compared to venlafaxine”. In assay [2], binding was put at a Kd of 0.329 µM and the “specificity for hNET compared to venlafaxine (in words)” value is “greater specificity for all three transporters compared to venlafaxine”. In assay [3], the Kd was 0.88 µM and the “specificity for hDAT compared to venlafaxine (in words)” value is “greater specificity for all three transporters compared to venlafaxine”.

In general, Kd refers to a measure of binding affinity in units of concentration. A higher Kd goes with lower affinity.

Source of the values: patent US7214826B2, “Amine compounds and inhibiting neurotransmitter reuptake” (Mayo Foundation for Medical Education and Research, priority 2001, dated 2007).
